Results as given in US10907219B2, “Compositions and methods for controlling cellular function” (STC.UNM, priority 2014, dated 2021).
Entries after “also recorded” stand apart in the source; their conditions may differ.

Experiments:
[1] = test system: myr-ABI and EGFP-PYL-Tiam1 in CHO cells; experiment: Light-induced ruffling via Tiam1 membrane localization / Rac1 signaling (fixed cells); type: cell-based; details: for percentage of cells displaying ruffling: compared with ABA-DMNB without irradiation or no drug
Excerpt: Next, we examined the induction of ruffle formation through the activation of the Rac1 signaling pathway in order to determine if the light-activated ABA system can be used to regulate a complex biological process. The GTP exchange factor, Tiam1, when presents at the cell membrane, activates Rac1 to initiate a signaling pathway that leads to cytoskeletal remodeling that forms filopodia and/or lamellipodia. To activate Rac1 signaling and induce membrane ruffling, light and ABA-DMNB were used to control membrane localization of Tiam1 (FIG. 23A). A construct encoding a membrane localized ABI (myr-ABI) and one expressing a constitutively active Tiam1 fused to EGFP and PYL were employed for this purpose (FIG. 23A). Following the transfection of CHO cells with both plasmids for 24 hours, 10 μM of ABA-DMNB was added and the treated cell culture was irradiated with 365 nm light from a fluorescent microscope. Cells were then fixed on slides and analyzed under a fluorescence microscope. […] Some background ruffling when overexpressing constitutively active Tiam1 was observed even when no drug was added.
Slide preparation: Cells were grown on glass coverslips in 24-well plates. The coverslips were washed with phosphate-buffered saline (PBS) and fixed with 4% paraformaldehyde (PFA, 300 μL, prepared in PBS) at room temperature for 20 min. The cells were then washed twice with PBS and incubated with 1×DAPI in the dark at the room temperature for 5 min. After a final wash with PBS, the coverslips were mounted on a glass slide with VECTASHIELD (Vector Laboratories, Inc., Burlingame, Calif.) mounting media and allowed to stand for two hours in the dark before imaging.
Statistical analysis of cell population: Cell were categorized as displaying nuclear export of EGFP when the fluorescent intensity of the nucleus was less than 60% of the intensity of the cytoplasm. […] Cells were counted from three separate experiments, with N>50 for each experiment.

[2] = test system: CHO cells transfected with ABA-inducible luciferase constructs; experiment: ABA-inducible luciferase assay; type: cell-based; details: for stability in cell culture: 12 or 24 h, luciferase assay
Description: The cellular stability of ABA-DMNB was explored further using a more sensitive and quantitative luciferase assay system, which employs an inducible luciferase construct (FIG. 21A). CHO cells were transfected with the ABA-inducible luciferase constructs for 24 hours and then 10 μM of ABA-DMNB was added and incubated in dark for 12 or 24 hours. Cells were then harvested and analyzed by using the luciferase assay.
Cell culture and transfection: CHO cells and HEK 293T EGFP reporter cells (provided by Dr. Gerald R. Crabtree) were cultured in Dulbecco's modified Eagle's medium (DMEM; GIBCO, Life Technologies, Carlsbad, Calif.) with 10% FBS (Atlanta Biologicals, Inc., Norcross, Ga.), 1×GlutaMAX (GIBCO, Life Technologies, Carlsbad, Calif.), and 1× penicillin/streptomycin (Pen/Strep; GIBCO, Life Technologies, Carlsbad, Calif.). 15,000-50,000 ells were plated in a 24-well or 8-well plate for 24 hours before transfection. DNA constructs (0.1 μg-0.5 μg) were added to 50× (v/w) Opti-MEM (GIBCO, Life Technologies, Carlsbad, Calif.), and then 3× (v/w) PEI (Polysciences, Inc., Warrington, Pa.) was mixed with the DNA. The mixture was incubated for 20 minutes at room temperature before adding it to cell cultures. The cells were grown for one day after transfection before experiments were performed.
Luciferase assay: Cells from 24-well plates were washed with PBS and lysed with Reporter lysis buffer (100 μL; Promega Corp., Madison, Wis.) by incubation and gentle shaking at room temperature for 10 minutes after a freeze/thaw cycle. Cell lysates were centrifuged at 15,000 rpm in an Eppendorf 5424 Centrifuge with lysate used for the luciferase assay (25 μL). Luciferase assay reagent (100 μL, 5 mg luciferin (Gold Biotechnology, Inc., St. Louis, Mo.) and coenzyme A (7 mg; Sigma-Aldrich, St. Louis, Mo.) in Luciferase Assay Buffer (33 mL, 20 mM tricine, 1.07 mM (MgCO3)4Mg(OH)2.5 H2O, 2.67 mM MgSO4, 0.1 mM EDTA, 33.3 mM dithiothreitol, and 0.53 mM ATP in water) was added to lysates. Luciferase assay reagent was added through the auto-injector of a GLOMAX-Multi Detection System (Promega Corp., Madison, Wis.), and the signal was detected by the instrument with a 1.5 s delay and 0.5 s integration time. All experiments were conducted in triplicate.

[3] = Photo-cleavage (uncaging) of caged ABA (HPLC); type: physicochemical; details: for formation of 2-trans ABA isomer on irradiation: 365 nm photo-cleavage condition; for photo-cleavage by 365 nm light / photo-cleavage by 405 nm light: 10 μM in DMSO
Description: HPLC analysis: Reversed-phase HPLC was performed on an ACCLAIM 120 (4.6×100 mm) C18 column (Thermo Fisher Scientific, Waltham, Mass.) with an ULTIMATE 3000 pump system, including a Variable Wavelength Detector 3100, Degasser 1210, and Autosampler SPS 3000 (Thermo Fisher Scientific, Waltham, Mass.). A mixture of water and acetonitrile containing 0.1% TFA was used as the eluent. Absorbance at 250 nm was used to monitor the elution of the molecules. The method used an increase in acetonitrile from 5% to 95% over 15 minutes to elute the molecules at a flow rate of 0.7 mL/min. The peaks for the molecules were integrated by using Chromeleon software (Thermo Fisher Scientific, Waltham, Mass.). The molar absorptivity of both free and caged ABA at 250 nm were measured, which was used to calculate the concentration of each species from the intensity of absorbance at 250 nm. The relative concentration of each compound was used to calculate the percent concentration of free ABA relative to the concentration of total ABA species (both caged and uncaged).
Photo-irradiation: Irradiation at 365 nm was performed with an Axio Observer (Carl Zeiss AG, Oberkochen, Germany) microscope with an HBO103 W/2 mercury arc lamp (Carl Zeiss AG, Oberkochen, Germany). Irradiation was performed by using a DAPI filter (Carl Zeiss AG, Oberkochen, Germany), set with peak excitation at 365 nm (power density: 23 mW cm^2) and a spectral width of 50 nm. No objective lens was used for whole-well irradiation, which created an area of illumination that nearly completely covered one well of a 24-well plate. Light was transmitted through the bottom of the well of polystyrene plate. Irradiation at 405 nm was performed by using an adjustable focus violet purple laser pointer (LazerPoint SKU 0733579), with an excitation wavelength of 405 nm and 1000 mW intensity positioned 8 cm above the bottom of either a 96-well or 24-well plate and irradiated through the polystyrene lid. All samples for HPLC analysis were irradiated in DMSO to prevent evaporation of solvent and changes in sample concentration. Irradiation of cell cultures was performed in 24-well plates containing culture medium (500 μL).

formation of isomerized ABA on irradiation ([3]; 405 nm uncaging) | SMILES | percentage of cells displaying ruffling ([1]; not irradiated) | luciferase expression ([2]; not irradiated, twelve hours after addition) | formation of 2-trans ABA isomer on irradiation [3] | Rac1 signaling activation/ruffle formation ([1]; 10 μM, 405 nm light irradiation, fixed CHO cells) | stability in cell culture ([2]; 10 μM, dark) | photo-cleavage by 365 nm light [3] | photo-cleavage by 405 nm light [3] | irradiation time to complete cleavage ([3]; 405 nm light) | percentage of cells displaying ruffling ([1]; 10 μM, 365 nm irradiation) | luciferase expression ([2]; 10 μM, dark, 12 hours) | luciferase expression ([2]; 10 μM, dark, 24 hours) | irradiation time after which free ABA is regenerated ([3]; 10 μM and 100 μM, 365 nm UV light) | irradiation time to regenerate free ABA ([3]; 100 μM, 365 nm light)
 | CC1=CC(=O)CC(C)(C)C1(O)/C=C/C(C)=C\C(=O)O (stereo not drawn) [ABA, abscisic acid, reference compound] | higher percentage of ruffled cell; also recorded: greater percentage of cells displaying ruffling | induced luciferase expression | very little 2-trans isomer was produced |  |  |  |  |  |  |  |  |  | 
isomerized ABA was also produced | CCN(CC)c1ccc2c(COC(=O)/C=C(C)\C=C\[C@@]3(O)C(C)=CC(=O)CC3(C)C)cc(=O)oc2c1 [ABA-DEACM] |  |  |  | Rac1 signaling activation/ruffle formation in cells | stable chemically and in cell culture | cannot be cleaved effectively under 365 nm light; also recorded: cannot be cleaved efficiently by 365 nm light | cleaved rapidly to give ABA within a few minutes | ≤ 4 min |  |  |  |  | 
 | COc1cc(COC(=O)/C=C(C)\C=C\[C@@]2(O)C(C)=CC(=O)CC2(C)C)c([N+](=O)[O-])cc1OC [ABA-DMNB] |  |  | near equal amount |  | relatively stable under the cell culture condition | rapidly regenerated from the photo-uncaging of ABA-DMNB within a min | cannot efficiently uncage |  | higher percentage of ruffled cell; also recorded: greater percentage of cells displaying ruffling | very little luciferase expression | only a minimal level of luciferase was induced | 120 s | ≤ 2 min
